From patent publication US7745575B1 (Cellpep Pharma Inc., priority 2004, dated 2010)
Bridge positions count the residues as written; N and C are the ends. Peptide text beside a SMILES is read from it.

Assay: toxicity in vivo, LD50 after intracerebroventricular injection
Settings: mouse, icv or intrathecal, 20 g C57/BL6 mice
Procedure: Groups of six to eight mice per dose were injected with 5 μl peptide solution containing 0.1% (w/v) bovine serum albumin and 0.9% (w/v) NaCl. The LD50 values are set out in Table 5.
Work on CC[C@H](C)[C@@H]1NC(=O)[C@H](CCCCN)NC(=O)[C@@H](NC(=O)[C@H](CCCCN)NC(=O)[C@@H](NC(=O)[C@H](CC(N)=O)NC(=O)[C@@H](NC(=O)[C@@H](NC(=O)[C@@H](NC(=O)CN)C(C)C)[C@@H](C)CC)[C@@H](C)CC)C(C)C)CSSC[C@@H]2NC(=O)[C@H](CCCCN)NC(=O)CNC(=O)[C@H](Cc3ccccc3)NC(=O)[C@H](CCCNC(=N)N)NC(=O)[C@H](CCSC)NC(=O)CNC(=O)[C@H](C)NC(=O)[C@H](CC(=O)O)NC(=O)[C@H](CCCCN)NC(=O)[C@@H]3CSSC[C@@H](C(=O)N[C@H](C(=O)N4CCC[C@H]4C(=O)N[C@@H](CCCCN)C(=O)O)[C@@H](C)O)NC(=O)[C@H](Cc4c[nH]cn4)NC(=O)[C@H](CSSC[C@H](NC(=O)[C@H](CCC(N)=O)NC(=O)[C@H](CCCNC(=N)N)NC(=O)[C@H](CO)NC1=O)C(=O)N[C@@H](CC(C)C)C(=O)N[C@@H](CCCCN)C(=O)N1CCC[C@H]1C(=O)N3)NC(=O)[C@H](CCCCN)NC(=O)[C@H](CCCNC(=N)N)NC(=O)[C@H](CC(N)=O)NC(=O)[C@H](CCSC)NC2=O yielded an LD50 of 0.005 mg/kg. Work on CC[C@H](C)[C@@H]1NC(=O)[C@H](CCCCN)NC(=O)[C@@H](NC(=O)[C@H](CCCCN)NC(=O)[C@@H](NC(=O)[C@H](CC(N)=O)NC(=O)[C@@H](NC(=O)[C@@H](NC(=O)[C@@H](NC(=O)CNC(C)=O)C(C)C)[C@@H](C)CC)[C@@H](C)CC)C(C)C)CSSC[C@@H]2NC(=O)[C@H](CCCCN)NC(=O)CNC(=O)[C@H](Cc3ccccc3)NC(=O)[C@H](CCCNC(=N)N)NC(=O)[C@H](CCSC)NC(=O)CNC(=O)[C@H](C)NC(=O)[C@H](CC(=O)O)NC(=O)[C@H](CCCNC(=N)N)NC(=O)[C@@H]3CSSC[C@@H](C(=O)N[C@H](C(=O)N4CCC[C@H]4C(=O)N[C@@H](CCCCN)C(=O)O)[C@@H](C)O)NC(=O)[C@H](Cc4c[nH]cn4)NC(=O)[C@H](CSSC[C@H](NC(=O)[C@H](CCC(N)=O)NC(=O)[C@H](CCCCN)NC(=O)[C@H](CO)NC1=O)C(=O)N[C@@H](CC(C)C)C(=O)N[C@@H](CCCCN)C(=O)N1CCC[C@H]1C(=O)N3)NC(=O)[C@H](CCCCN)NC(=O)CNC(=O)[C@H](CC(N)=O)NC(=O)[C@H](CCSC)NC2=O (Ac-GVIINVKCKISKQCLKPCRDAGMRFGKCMNGKCHCTPK-OH; disulfide 8-28, 14-33, 18-35) yielded an LD50 of 0.0175 mg/kg. In the case of CC[C@H](C)[C@@H]1NC(=O)[C@H](CCCCN)NC(=O)[C@@H](N)CSSC[C@@H]2NC(=O)[C@H](CCCCN)NC(=O)CNC(=O)[C@H](Cc3ccccc3)NC(=O)[C@H](CCCNC(=N)N)NC(=O)[C@H](CCSC)NC(=O)CNC(=O)[C@H](C)NC(=O)[C@H](CC(=O)O)NC(=O)[C@H](CCCCN)NC(=O)[C@@H]3CSSC[C@@H](C(=O)N[C@H](C(=O)N4CCC[C@H]4C(=O)N[C@@H](CCCCN)C(=O)O)[C@@H](C)O)NC(=O)[C@H](Cc4c[nH]cn4)NC(=O)[C@H](CSSC[C@H](NC(=O)[C@H](CCC(N)=O)NC(=O)[C@H](CCCNC(=N)N)NC(=O)[C@H](CO)NC1=O)C(=O)N[C@@H](CC(C)C)C(=O)N[C@@H](CCCCN)C(=O)N1CCC[C@H]1C(=O)N3)NC(=O)[C@H](CCCCN)NC(=O)CNC(=O)[C@H](CC(N)=O)NC(=O)[C@H](CCSC)NC2=O (H-CKISRQCLKPCKDAGMRFGKCMNGKCHCTPK-OH; disulfide 1-21, 7-26, 11-28), the LD50 is reported as 0.015 mg/kg.
